How the values were obtained:
[1] = tested on: spleen cell; assay: Interferon-γ production of spleen cells stimulated by Con A (double antibody sandwich ELISA); type: cell-based; details: Table 1-1; for Concentration of IFN-γ: Con A 0.5 μg/mL, 24 hours, n = 3; for Enhancement percentage: versus Con A alone
Description: Prepare spleen cell suspension in sterile condition. Adjust cell concentration to 5×10^6 cell/mL by adding RPMI-1640 culture with 20% bovine serum. Add 0.5 mL cell suspension, 0.25 mL Con A (final concentration is 0.5 μg/mL) and 0.25 mL samples with different concentrations in 24-well plate; and add RPMI-1640 culture in control wells. Incubate the plates in a 5% CO2 chamber at 37° C. for 24 hours. Centrifuge and collect supernatant, test the content of IFN-γ in supernatant by double antibody sandwich ELISA. The protocol is according to the instruction on ELISA kit.

[2] = Half-life in liver homogenate (HPLC); type: in vitro ADME; details: 37° C., sample 0.4 mg/mL or 0.8 mg/mL, read-out: t1/2 in liver homogenate (converted)
Description: Experimental method: Prepare 0.4 mg/mL or 0.8 mg/mL sample aqueous solution in centrifuge tube, adding 50 μL liver homogenate. Then incubate for different time in 37° C. water bath. Terminate the reaction and precipitate liver homogenate protein by heating the mixture in boiling water for 5 minutes. Centrifuge it (10000 rpm) for 10 minutes. Analyze the supernatant by HPLC. The data was statistically analyzed by Origin Prof. 5.0.
HPLC: Column temperature: 25° C.; Flow rate 1.0 mL/min; Detection wavelength: 200 nm; Mobile phase A: 0.1% TFA/H2O; Mobile phase B: 0.1% TFA/70% CH3CN.

[3] = tested on: T lymphocyte (spleen cell); assay: T lymphocyte proliferation stimulated by Con A (3H-TdR incorporation); type: cell-based, mouse; details: Table 2-1; for 3H-TdR incorporation (cpm, x ± SD): Con A 0.5 μg/mL, 72 hours, n = 4; for Enhancement percentage: versus Con A alone
Description: Sacrifice mouse by draining artery blood, remove spleen in sterile condition, and make it to spleen cell suspension. After red blood cell lysis, wash for 3 times, and stain with Trypan Blue to count the living cells. The amount of living cells should be more than 95%. Dilute the cell concentration to 5×10^6 cell/mL by adding RPMI-1640 culture with 10% bovine serum. Add spleen cell suspension to a sterilized 96-well plate for 100 μL per well. The total amount is 200 μL per well (including 50 μL Con A and 50 μL medicament). Each sample concentration is repeated fro 3-4 wells. Incubate the plate in a 5% CO2 chamber for 72 hours, add 10 μci/mL ^3H-TdR 20 μL per well 16 hours before termination of the incubation, giving rise to a final concentration of 1.0 μci (37.0 KBq)/mL. Collect cells on filter membrane by using Herveste 96 cell harvester, dried in 80° C. oven for 20 minutes or dried in air. Put the dried filter membrane into 1450-423 microBeta sample bag, add scintillation liquid, and measure radioactivity (cpm) in Perkin Elmer MicroBeta Trilux 1450 Scintillation Counter.

[4] = Plasma concentration / pharmacokinetics in mouse (competitive ELISA); type: in vivo; details: 300 μg per mouse, injected peritoneally, parameters in 24 h
Description: Coating antigen: Dilute Tα1 detection antigen stock solution to a final concentration of 2 μg/mL with coating solution, and add it into the wells of ELISA plate for 0.1 mL per well, and incubate at 4° C. for 5 days. Then wash the ELISA plate 3 times with washing buffer, each 0.2 mL/well and 3 min/time. Add 0.2 mL blocking buffer to each well, incubate for 1.5 hours at 37° C., wash plate 2 times by washing buffer, and spin dried.
Sample preparation: Weight sample accurately, dissolve it in saline to a concentration of 1.5 mg/mL. Administrate 0.2 Ml by injection to each mouse peritoneally. Collect blood sample in 3 min, 20 min, 40 min, 1 h, 2 h, 3 h, 6 h, 8 h, 12 h, and 24 h. Collect serum by centrifuge the blood samples for 5 minutes at 10000 rpm, stored at −20° C. in a freezer. o prepare test sample, […] was added by 0.1 mL 1:1500 rabbit anti-Tα1 serum (final concentration is 1:6000), and 0.2 mL CD-1® mouse serum, and […]. Prepare blank control at the same time. Total volume is 0.4 mL. Incubate for 2 hours at 37° C. To prepare standard sample, Tα1 0.1 mL with different concentrations from 0.0004 to 400 μg/mL was added by 0.1 mL 1:1500 rabbit anti-Tα1 serum (final concentration is 1:6000), and 0.2 mL CD-1® mouse serum. Prepare blank control at the same time. Total volume is 0.4 mL. Incubate for 2 hours at 37° C.
Sample Testing Add the prepared test sample and standard sample to ELISA plate, 0.1 mL/well, reacting for 1 hour in 37° C. chamber. Wash the plates 3 times, spin dryed. Add substrate 0.1 mL/well for 10 minutes. Add 2 mol/L H2SO4 0.05 mL to each well to terminate the reaction. Measure the OD value at 450 nm. Plot the standard curve with the concentration of Tα1 standard sample as abscissa and OD value as vertical coordinate. Calculate the content of test sample according to this standard curve.

Ac-SDAAVDTSSEITTKDLKEKKEVVEEAENC-NH2 [BMJBT009]
Concentration of IFN-γ ([1]; sample 1 μg/mL): 1895.7 ± 49.8 pg/mL
Enhancement percentage ([1]; sample 1 μg/mL): +152.2%
Concentration of IFN-γ ([1]; sample 10 μg/mL): 1814.5 ± 105.5 pg/mL
Enhancement percentage ([1]; sample 10 μg/mL): +141.4%
Concentration of IFN-γ ([1]; sample 100 μg/mL): 672.1 ± 94.3 pg/mL
Enhancement percentage ([1]; sample 100 μg/mL): −11.0%
half-life [2]: 24 min
3H-TdR incorporation (cpm, x ± SD) ([3]; sample 10 μg/mL): 24888 ± 2473 cpm
Enhancement percentage ([3]; sample 10 μg/mL): +84.5%
3H-TdR incorporation (cpm, x ± SD) ([3]; sample 50 μg/mL): 24164 ± 2683 cpm
Enhancement percentage ([3]; sample 50 μg/mL): +46.6%
3H-TdR incorporation (cpm, x ± SD) ([3]; sample 100 μg/mL): 20574 ± 2746 cpm
Enhancement percentage ([3]; sample 100 μg/mL): +56.6%
AUC ([4]; n = 3): 2120 ng·h/mL
Cmax ([4]; serum, ip, 300 ug/animal, n = 3, read-out: Cmax): 443 ng/mL
Tmax ([4]; serum, ip, 300 ug/animal, n = 3, read-out: Tmax): 60 min

— patent US8080522B2, “Polyethlene glycol modifications of thymosin alpha-1” (Institute of Pharmacology and Toxicology Academy of …, priority 2005, dated 2011)
